This is an account of results in paper PMC12232896 (Angewandte Chemie (International Ed. in English), 2025).

Broadly, the IC50 is the point on the concentration scale where inhibition reaches its midpoint.

SMILES strings stand for the structures. Some results are limits rather than exact numbers.

Assay [1] has as its system Pf3D7 strain. Particulars: cited from earlier work.
Assay [2] addresses PvPI4Kβ (Plasmodium vivax, UniProt A5KB26). Also noted: method as in PMID 33590753, PMID 28446690, PMID 30249687. Particulars: same assay; cited from earlier work.
Assay [3] relates to P. berghei. Also noted: method as in earlier work. Particulars: 4 × 30 mg/kg; cited from earlier work.
In assay [4] the target is T1, HsMAP4K4 (Homo sapiens, UniProt O95819).
T1 construct: purchased Reaction Biology
T1 sequence (O95819 whole entry): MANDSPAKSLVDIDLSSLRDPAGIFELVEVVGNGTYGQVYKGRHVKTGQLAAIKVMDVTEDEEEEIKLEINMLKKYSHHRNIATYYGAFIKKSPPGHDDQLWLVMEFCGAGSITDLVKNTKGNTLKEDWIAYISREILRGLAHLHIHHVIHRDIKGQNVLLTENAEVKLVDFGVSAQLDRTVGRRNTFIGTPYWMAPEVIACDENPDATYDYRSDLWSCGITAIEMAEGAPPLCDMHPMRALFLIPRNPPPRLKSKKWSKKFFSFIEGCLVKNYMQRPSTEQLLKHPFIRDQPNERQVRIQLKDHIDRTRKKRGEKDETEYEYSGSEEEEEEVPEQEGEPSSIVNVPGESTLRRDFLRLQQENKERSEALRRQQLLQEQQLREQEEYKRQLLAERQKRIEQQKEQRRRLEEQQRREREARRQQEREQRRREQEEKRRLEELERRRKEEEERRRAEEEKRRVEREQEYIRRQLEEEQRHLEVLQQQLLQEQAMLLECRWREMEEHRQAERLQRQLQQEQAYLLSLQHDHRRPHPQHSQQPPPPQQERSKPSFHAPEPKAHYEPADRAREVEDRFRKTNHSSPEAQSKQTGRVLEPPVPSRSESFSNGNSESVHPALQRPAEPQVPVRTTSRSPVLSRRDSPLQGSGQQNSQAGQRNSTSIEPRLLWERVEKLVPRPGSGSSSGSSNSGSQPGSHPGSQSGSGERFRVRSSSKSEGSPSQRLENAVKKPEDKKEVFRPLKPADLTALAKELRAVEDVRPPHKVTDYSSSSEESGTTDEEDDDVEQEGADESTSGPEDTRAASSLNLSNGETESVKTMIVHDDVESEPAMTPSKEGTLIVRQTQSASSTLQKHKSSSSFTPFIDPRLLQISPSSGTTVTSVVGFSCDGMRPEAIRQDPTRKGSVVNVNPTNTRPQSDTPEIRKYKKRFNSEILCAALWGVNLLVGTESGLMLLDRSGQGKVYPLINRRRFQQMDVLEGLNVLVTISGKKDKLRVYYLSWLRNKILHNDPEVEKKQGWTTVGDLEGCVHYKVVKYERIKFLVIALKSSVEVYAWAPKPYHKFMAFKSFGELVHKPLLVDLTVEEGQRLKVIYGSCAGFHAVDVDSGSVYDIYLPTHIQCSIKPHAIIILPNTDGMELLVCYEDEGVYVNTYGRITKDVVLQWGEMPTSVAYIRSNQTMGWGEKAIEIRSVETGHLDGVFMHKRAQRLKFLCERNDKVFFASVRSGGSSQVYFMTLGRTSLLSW
Kind of assay: HsMAP4K4 ADP-Glo kinase assay. Type of assay: biochemical. Particulars: reference compound, 10 µM ATP. In general terms: In ADP-Glo the light output rises with the ADP produced.

For assay [5], the target named is T2, HsMINK1 (Homo sapiens, UniProt Q8N4C8).
T2 construct: purchased Reaction Biology
T2 sequence (Q8N4C8 whole entry): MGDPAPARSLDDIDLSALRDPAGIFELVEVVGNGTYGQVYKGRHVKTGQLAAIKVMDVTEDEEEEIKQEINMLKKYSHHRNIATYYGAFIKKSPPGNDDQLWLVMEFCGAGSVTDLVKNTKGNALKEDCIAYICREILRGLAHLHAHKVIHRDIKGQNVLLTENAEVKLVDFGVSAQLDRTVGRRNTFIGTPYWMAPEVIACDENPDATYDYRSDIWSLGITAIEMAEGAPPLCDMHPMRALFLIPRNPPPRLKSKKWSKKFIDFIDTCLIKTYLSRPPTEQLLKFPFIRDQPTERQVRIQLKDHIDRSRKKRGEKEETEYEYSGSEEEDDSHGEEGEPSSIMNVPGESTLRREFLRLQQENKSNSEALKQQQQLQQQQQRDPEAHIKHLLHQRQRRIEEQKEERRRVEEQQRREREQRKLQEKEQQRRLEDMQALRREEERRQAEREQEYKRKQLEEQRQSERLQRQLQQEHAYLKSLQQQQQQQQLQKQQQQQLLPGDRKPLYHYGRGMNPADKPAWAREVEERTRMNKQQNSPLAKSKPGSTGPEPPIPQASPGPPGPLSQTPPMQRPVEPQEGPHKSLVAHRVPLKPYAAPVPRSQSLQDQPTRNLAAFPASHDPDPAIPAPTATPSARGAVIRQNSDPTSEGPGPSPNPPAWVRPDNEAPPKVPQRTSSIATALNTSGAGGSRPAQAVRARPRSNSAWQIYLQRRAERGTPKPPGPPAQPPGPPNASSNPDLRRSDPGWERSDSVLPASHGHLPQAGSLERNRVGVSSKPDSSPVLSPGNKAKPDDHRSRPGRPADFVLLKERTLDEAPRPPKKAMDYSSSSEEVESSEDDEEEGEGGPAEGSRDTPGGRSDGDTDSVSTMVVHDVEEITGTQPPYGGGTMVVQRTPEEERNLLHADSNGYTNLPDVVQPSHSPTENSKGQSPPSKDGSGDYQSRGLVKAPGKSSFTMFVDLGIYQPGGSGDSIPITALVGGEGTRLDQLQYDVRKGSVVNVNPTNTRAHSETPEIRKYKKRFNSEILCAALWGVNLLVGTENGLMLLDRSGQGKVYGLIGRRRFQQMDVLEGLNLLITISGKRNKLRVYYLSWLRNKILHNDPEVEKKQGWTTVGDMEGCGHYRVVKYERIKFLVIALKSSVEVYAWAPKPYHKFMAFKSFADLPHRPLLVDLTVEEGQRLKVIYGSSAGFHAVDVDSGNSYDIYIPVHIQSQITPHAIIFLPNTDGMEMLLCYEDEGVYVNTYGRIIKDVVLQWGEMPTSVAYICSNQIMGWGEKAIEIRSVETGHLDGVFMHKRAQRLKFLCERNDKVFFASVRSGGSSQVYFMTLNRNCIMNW
Kind of assay: HsMINK1 ADP-Glo kinase assay. In kind it is biochemical. Particulars: reference compound, 10 µM ATP.

Chain of PvPI4Kβ (A5KB26 entry or part of it): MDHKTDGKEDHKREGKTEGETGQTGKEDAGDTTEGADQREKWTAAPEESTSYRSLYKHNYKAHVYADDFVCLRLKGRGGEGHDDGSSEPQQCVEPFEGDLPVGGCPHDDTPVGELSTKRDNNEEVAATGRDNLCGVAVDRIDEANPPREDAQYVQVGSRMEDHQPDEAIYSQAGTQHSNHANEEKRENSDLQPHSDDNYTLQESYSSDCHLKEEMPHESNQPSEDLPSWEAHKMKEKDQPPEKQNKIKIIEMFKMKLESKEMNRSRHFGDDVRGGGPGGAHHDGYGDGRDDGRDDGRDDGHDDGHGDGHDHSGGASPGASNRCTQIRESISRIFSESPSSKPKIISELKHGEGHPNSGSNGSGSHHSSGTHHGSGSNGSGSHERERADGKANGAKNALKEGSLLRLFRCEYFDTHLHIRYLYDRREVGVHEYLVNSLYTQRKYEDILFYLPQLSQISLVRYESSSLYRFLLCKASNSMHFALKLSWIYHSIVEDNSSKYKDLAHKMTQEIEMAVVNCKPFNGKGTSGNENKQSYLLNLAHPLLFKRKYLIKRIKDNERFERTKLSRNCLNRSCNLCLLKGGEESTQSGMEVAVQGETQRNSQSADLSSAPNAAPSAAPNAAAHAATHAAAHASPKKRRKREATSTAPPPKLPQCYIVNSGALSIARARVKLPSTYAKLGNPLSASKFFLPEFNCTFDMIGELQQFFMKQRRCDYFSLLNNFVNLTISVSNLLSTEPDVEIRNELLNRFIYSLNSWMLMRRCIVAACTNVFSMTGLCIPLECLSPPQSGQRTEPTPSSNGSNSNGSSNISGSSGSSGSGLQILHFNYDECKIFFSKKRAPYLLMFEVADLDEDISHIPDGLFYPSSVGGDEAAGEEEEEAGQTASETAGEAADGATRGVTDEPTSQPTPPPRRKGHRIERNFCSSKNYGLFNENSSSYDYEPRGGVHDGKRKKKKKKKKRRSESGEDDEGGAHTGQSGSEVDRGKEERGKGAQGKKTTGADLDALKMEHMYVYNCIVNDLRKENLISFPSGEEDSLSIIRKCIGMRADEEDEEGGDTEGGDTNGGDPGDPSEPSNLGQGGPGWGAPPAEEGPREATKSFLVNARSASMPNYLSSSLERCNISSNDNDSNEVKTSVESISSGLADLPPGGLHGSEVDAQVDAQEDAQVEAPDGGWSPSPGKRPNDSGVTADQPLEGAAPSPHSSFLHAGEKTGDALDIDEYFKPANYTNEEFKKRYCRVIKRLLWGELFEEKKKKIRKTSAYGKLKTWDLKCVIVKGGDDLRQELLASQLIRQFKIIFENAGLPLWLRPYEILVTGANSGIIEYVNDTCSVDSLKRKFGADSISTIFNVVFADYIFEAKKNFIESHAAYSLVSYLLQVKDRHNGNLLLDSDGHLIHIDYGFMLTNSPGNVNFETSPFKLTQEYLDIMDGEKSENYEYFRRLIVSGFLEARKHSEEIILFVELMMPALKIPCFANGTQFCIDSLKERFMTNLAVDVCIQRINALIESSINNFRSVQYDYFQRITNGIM

For the molecule `Nc1ncc(-c2ccc(C(=O)N3CCNCC3)cc2)nc1-c1ccc(C(F)(F)F)cc1` [UCT943], the logPRR in assay [1] was 2.5. Also, the concentration for half-maximal inhibition (IC50) in assay [2] was less than 5 nM.
Turning to `C[C@H]1[C@H](OC(=O)CCC(=O)O)O[C@@H]2O[C@@]3(C)CC[C@H]4[C@H](C)CC[C@@H]1[C@@]24OO3` [artesunate], in assay [3], the reduction in parasitaemia was 99%.
For `CCN(CC)CCCC(C)Nc1ccnc2cc(Cl)ccc12` (stereo not shown) [chloroquine], the reduction in parasitaemia in assay [3] is listed as 99.9%.
Consider `CC(C)n1nc(-c2ccc3oc(N)nc3c2)c2c(N)ncnc21` [sapanisertib], for which, in assay [2], the IC50 was less than 5 nM.
With `CN[C@@H]1C[C@H]2O[C@@](C)([C@@H]1OC)n1c3ccccc3c3c4c(c5c6ccccc6n2c5c31)C(=O)NC4` [staurosporine], the “inhibition HsMAP4K4” value in assay [4] is “nanomolar inhibition”. Moreover, the “inhibition HsMINK1” value in assay [5] is reported as “nanomolar inhibition”.
